{"source": "paper PMC11672137", "about": "“High-Affinity Lectin Ligands Enable the Detection of Pathogenic Pseudomonas aeruginosa Biofilms: Implications for Diagnostics and Therapy” (JACS Au, 2024)", "key": {"[1]": {"system": "P. aeruginosa PAO (DSM 1707) lung infection", "test": "Optical in vivo imaging and ex situ organ analysis in acute P. aeruginosa airway infection model", "design": "species or system mice", "description": "Encouraged by the high affinity of the imaging probes and their ability to stain P. aeruginosa biofilms in vitro, we further investigated the compounds in vivo using an acute P. aeruginosa airway infection model in mice. Intratracheal administration of P. aeruginosa PAO (DSM 1707) results in a local infection that is mainly restricted to the lungs. With the infection dose of 2 × 10^6 cfu/50 μL chosen here, the number of bacteria peaks at 6 h after infection before the host immune system clears the bacteria.[70]\nThen, imaging probes, divalent LecA-targeting probe 21, LecB-targeting probe 22 and the control sulfo-Cy7 (free acid), were administered intravenously to the tail vein 2 h post infection. […] This accumulation in the lungs was then confirmed by a subsequent ex vivo analysis of the organs.\nFigure 6 Optical in vivo imaging in mice and ex situ analysis of organs with P. aeruginosa PAO acute lung infection. In vivo imaging of mice with P. aeruginosa intratracheal infection (right) or uninfected control mice (left) after intravenous administration of imaging probes 2 h post infection: (A) 50 nmol/20 g divalent LecA probe 21 or (B) 100 nmol/20 g LecB probe 22. Then, explanted lungs were analyzed for fluorescence intensity, shown as a false color scale in (C) divalent LecA probe 21 (left: uninfected, right: infected) and (D) LecB probe 22 (left: uninfected; middle: uninfected control without dye; right: infected). (E) Quantification of the average radiant efficiency of the divalent LecA ligand 21 and the control sulfo-Cy7 free acid in the lungs of uninfected and infected mice. Duplicate data points and the mean are depicted. (F) Average radiant efficiency was quantified for the LecB imaging probe 22 in lungs of infected and uninfected mice. In addition, (G) further mouse organs were explanted after i.v. injection of 21 (50 nmol/20 g) or control sulfo-Cy7 free acid (50 nmol/20 g) and imaged. Organs of uninfected (left), infected (right) mice, and uninfected mice without any dye (upper middle on the sulfo-Cy7 free acid rows) were compared. Fluorescence intensities are shown as false color pictures. […]\nLung infection model and in vivo imaging of P. aeruginosa\nC57BL/6J and albino (Tyrc2J) C57BL/6 mice were bred and housed at the Central Animal Facility, Hannover Medical School, Germany. Animal experiments were performed with permission number: 33.9-42502-04-16/2072 from the Lower Saxony State Office for Consumer Protection and Food Safety (LAVES), Germany. Mice were anesthetized with 3% isoflurane (CP Pharma) and infected intratracheally with 2x10^6 cfu/50 µL of P. aeruginosa PAO (DSM1707, Braunschweig, Germany) as described previously.26\n50 – 100 nmol sulfo-Cyanine7-compound (divalent LecA probe 21; LecB probe 22; control sulfoCy7 free acid, CAS no.: 2104632-30-4, Lumiprobe; control sulfoCy7 azide, 20, Lumiprobe) per 20 g mouse was injected intravenously 2 h after infection. Optical imaging was performed 4 – 7 h after compound administration. Mice were anesthetized with 3% isoflurane […]\nan in vivo imaging system (IVIS SpectrumCT, PerkinElmer). Subsequently mice were euthanized and organs were imaged (675/760 nm) ex situ individually. To enhance Cyanine7 specific fluorescent signal spectral unmixing was performed on in vivo images using LivingImage 4.7 (PerkinElmer). […]"}, "LecA": {"molecular_target": "T1, LecA (Pseudomonas aeruginosa, UniProt Q05097)", "T1 construct": "made in house", "T1 sequence (Q05097 whole entry)": "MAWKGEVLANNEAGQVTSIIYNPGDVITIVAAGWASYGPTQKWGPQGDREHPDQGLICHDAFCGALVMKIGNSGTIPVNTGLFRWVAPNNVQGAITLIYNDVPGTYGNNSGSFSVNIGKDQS", "test": "Direct binding assay based on fluorescence polarization, titration with LecA", "experimental": "The binding affinities of imaging probes 2–4 for LecA were determined using a direct binding assay based on fluorescence polarization (FP).[47]\n(A, C) Monovalent LecA imaging probes 2–4 based on phenyl β-D-galactoside (1) were titrated with LecA. […] (E) Xyloside-fluorescein conjugate (8) and azido fluorescein (9) served as negative controls in titrations with LecA and LecB, respectively. Averages and standard deviations were determined from at least three independent titrations of technical triplicates each.\nDirect binding affinity determination of LecA and LecB imaging probes was performed with direct titration of protein and imaging probes in TBS/Ca2+ buffer. Protein dilution series was prepared in 96 well plates and 10 µL of each dilution in triplicates were mixed with 10 µL of fluorescent compound (20 nM) in 384-well microtiter plates (Greiner Bio-One, Germany, cat no 781900). The plates were centrifuged (1 min, 500 g), sealed and incubated for 2 h in dark wet chamber under gentle shaking. Fluorescence was measured on a PheraStar FS plate reader (BMG Labtech GmbH, Germany) with excitation filters at 485 nm and emission filters at 535 nm. The data were analysed with MARS Data Analysis Software (BMG Labtech GmbH, Germany) to calculate Kd values."}, "[2]": {"system": "P. aeruginosa PAO1 biofilm aggregates", "test": "In vitro biofilm staining under static conditions (CLSM)", "type": "cell-based, Pseudomonas aeruginosa", "conditions": "10 μM probe", "description": "The ability of LecA- and LecB-targeting probes to image P. aeruginosa biofilms was evaluated in vitro. P. aeruginosa PAO1, constitutively expressing mCherry from plasmid pMP7605,[56] was cultivated in microtiter plates under shaking conditions to form biofilm aggregates, as reported previously.[43] Fluorescein-carbohydrate conjugates were added to the bacterial culture to reach a final concentration of 10 μM and biofilms were analyzed by confocal laser scanning microscopy (CLSM) under static conditions (Figures 2 and S4). […] To our surprise, the intended negative control xyloside 8 also stained the P. aeruginosa biofilms (Figures 2C and S4). In all cases, the green signal originating from the fluorescein conjugates was not homogeneously spread over the entire structure of the biofilm aggregates, but a certain heterogeneity was observed across biofilm regions as bright spots. Further, the intensity of staining varied between replicates (see the Supporting Information for individual experiments). […] Instead, only a very faint green shadow was detected for 9 indicating its suitability as a negative control. Thus, the observed biofilm staining with imaging probes 2, 3, 6, 7 and also xyloside 8 was carbohydrate dependent and while 2, 3 and 6, 7 are ligands of LecA and LecB, respectively, the molecular mechanism of xyloside 8 remains elusive.\nOne representative image of stained aggregates is shown. […] Scale bar = 50 μm.\nP. aeruginosa PAO1 expressing the red fluorescent protein mCherry (pMP7605)23 was selected for this study. For this, P. aeruginosa PAO1 (DSM 19880, Braunschweig, Germany) was transformed with the mCherry plasmid (pMP7605).23 Bacteria were stored at -80 °C. For experimental use, bacteria were streaked on lysogeny broth (LB) agar (1% tryptone, 1% NaCl, 0,5% yeast extract, 1.3% agar) containing 60 µg/mL gentamicin (Gm) and incubated at 37 °C overnight. For liquid cultures, bacterial colonies were transferred from LB agar to 10 mL LB (1% tryptone, 1% NaCl, 0,5% yeast extract) containing 60 µg/mL Gm and incubated at 37 °C and 180 rpm overnight. For exponential growth, 10 mL of LB containing 60 µg/mL Gm were inoculated with P. aeruginosa PAO1 mCherry (pMP7605)23 using an overnight liquid culture […]\nIn vitro biofilm staining under static conditions\nBiofilm staining experiments were performed in analogy to Wagner et al. with P. aeruginosa PAO1 pMP7605 (Figure S4).23,24 Bacterial overnight cultures were inoculated from single colonies in 5 mL LB supplemented with gentamicin (120 µg/mL) and grown at 37 °C and 180 rpm. The bacterial overnight cultures were then diluted to OD600 of 0.02 with LB and 500 µL of culture per well were transferred to 24-well plate (24CG, Art. No. 5231 or 24FC, Art. No. 3231). The biofilm was grown under shaking conditions (180 rpm) at 37 °C for 20–24 h. Biofilm aggregates were visualized using a confocal laser scanning microscope (Leica TCS Sp8 CLSM) using a 25× numerical-aperture water objective. Z-stacks (463 x 463 μm) were recorded every 2 μm for mCherry (ex.: 561 nm, red) and for fluorescein containing imaging compounds (ex.: 488 nm, green). […]\nMaximum Intensity Projections (contrast range automatically adjusted by Imaris). Only one staining experiment was carried out for imaging probes 4 and S26, all other fluorescein conjugates were analyzed in at least three independent experiments."}, "[3]": {"system": "P. aeruginosa PAO1 biofilms", "test": "In vitro biofilm staining under flow conditions, compound supplementation to the medium", "type": "cell-based, Pseudomonas aeruginosa", "conditions": "for Biofilm staining after accumulation: 500 nM in medium, 4 h, fluorescence microscope; for Biofilm staining by CLSM after accumulation: 500 nM, 4 h accumulation, without washing", "description": "P. aeruginosa biofilms were grown under flow conditions and observed by fluorescence microscopy in analogy to Ghanbari et al.[66] To this end, P. aeruginosa PAO1 expressing the red fluorescent protein mCherry[56] was diluted to an OD600 nm of 0.1 and injected into the microfluidics device. After a 30-min settling period, biofilms were grown under a constant laminar flow rate of 3 mL/h per channel. Following 48 h of incubation at 30 °C, dense and mature P. aeruginosa PAO1 biofilms were observed, which were then further used for analysis of the imaging probes.\nTo circumvent these technical drawbacks, the addition of compounds to the medium reservoir and retention at the biofilm was pursued. Imaging compounds were added to the medium reservoirs at a concentration of 500 nM, which were continuously pumped (3 mL/h) through the flow cell for 4 h. Compound accumulation at mature P. aeruginosa biofilms was immediately analyzed using fluorescence microscopy. Afterwards, the medium was exchanged, and the biofilms were washed for 30 min (3 mL/h, no compound) to monitor the retention (Figure 5). Furthermore, an analysis using CLSM was also performed after 4 h of accumulation without washing (Figures 5 and S22).\nFigure 5 Staining of P. aeruginosa PAO1 biofilms grown under flow conditions with compound supplementation to the medium. Biofilm staining with (A) fluorescein divalent probe 17, (B) fluorescein control 24, (C) BODIPY divalent probe 19, and (D) BDP FL azide control 18 was monitored after 4 h of accumulation under constant flow (3 mL/h) of LB media containing 500 nM of respective compound. Retention of imaging compounds is shown after a subsequent wash period for 30 min with medium (3 mL/h, no compound). Images were recorded by using a fluorescence microscope. CLSM was performed for (E) BODIPY divalent probe 19 and the control (F) BDP FL azide 18 after 4 h of accumulation. Green signal originates from fluorescently labeled probes 17 and 19 and controls 24 and 18. P. aeruginosa constitutively expressing mCherry from pMP7605^56 is shown in red. Z-Stack size, 2 μm. Scale bar = 50 μm.\nIn vitro biofilm staining under flow conditions\nThe flow cell experiment was set up in analogy to Ghanbari et al. and in this study, optimized and established for biofilm staining.25 In principle, the experiment is based on an inlet connected to a medium source, a peristaltic pump providing constant medium flow, a flow chamber enabling analysis of bacterial growth and an outlet (waste container/bottle).\nThe medium used in the flow system was LB diluted by factor 5 containing 60 µg/mL\nGm. Silicone tubings 1.6 mm (ibidi, Germany) were used transporting medium from inlet to the peristaltic pump (Watson-Marlow Fluid Technology Solutions). Stopper hoses (CarlRoth) placed in peristaltic pump were coupled to silicone tubes via connectors (ibidi, Germany).\nStopper hoses are connected to bubble traps (obtained by Claus Sternberg, DTU Copenhagen) via 0.8 mm silicone tubing (ibidi, Germany). Bubble traps were used to remove air from the medium flow and to avoid biofilm disruption. Downstream from the bubble traps, the flow cell (μ-Slide VI 0.4 ibiTreat, ibidi, Germany) was placed into the system and connected to 1.6 mm silicone tubes (ibidi, Germany). The outlet is leading the medium from flow chamber to a waste […]\nIn order to inoculate the flow cell with P. aeruginosa PAO1 mCherry (pMP7605)23 the silicone tubes upstream and downstream of the flow chamber were pinched off by using commercial plastic clamps. The medium flow was stopped and the flow cell was inoculated by injecting 300 µL of the bacterial suspension (OD600nm of 0.1) into the silicone tubing upstream of the flow chamber. For this, a cannula (0.30 x 12 mm, Sterican) was used. The injection point was sealed with silicone glue. After bacterial settling time of 30 min, the flow was started again and clamps were removed. Growth temperature was regulated by using a heat system (ibidi, […]\nGermany). […]"}}, "data": [{"compound": "C[C@@H]1O[C@H](CNS(=O)(=O)c2ccc(-c3cn(CCCNC(=O)CCCCC[N+]4=C(/C=C/C5=CC(=C/C=C6/N(C)c7ccc(S(=O)(=O)O)cc7C6(C)C)/CCC5)C(C)(C)c5cc(S(=O)(=O)[O-])ccc54)nn3)s2)[C@@H](O)[C@H](O)[C@@H]1O", "note": "[compound 22]", "values": [{"measurement": "Average fluorescence radiant efficiency of explanted lungs", "setting": "[1]; ex vivo analysis of organs, infected vs uninfected mice", "result": "elevated compared with uninfected mice"}, {"measurement": "Cyanine7 signal in lung area, optical in vivo imaging", "setting": "[1]; i.v. 2 h post infection, infected vs uninfected mice, 21 50 nmol/20 g, 22 100 nmol/20 g", "result": "elevated Cyanine7 signals in the area of the lung of infected mice compared to uninfected mice"}, {"measurement": "Fluorescence ex vivo in lungs of uninfected animals compared to control sulfo-Cyanine7 (free acid)", "setting": "[1]; uninfected mice, ex vivo quantification", "result": "a certain accumulation in the lungs of uninfected animals"}]}, {"compound": "O=C1OC2(c3ccc(O)cc3Oc3cc(O)ccc32)c2ccc(NC(=S)NCCOCCOCCOCCn3cc(CNc4ccc(S[C@@H]5O[C@H](CO)[C@H](O)[C@H](O)[C@H]5O)cc4)nn3)cc21", "note": "[compound 3]", "values": [{"measurement": "Kd", "setting": "LecA", "result": "11.6 ± 0.7", "unit": "µM"}, {"measurement": "Staining of biofilm aggregates", "setting": "[2]", "result": "showed staining"}]}, {"compound": "O=C1OC2(c3ccc(O)cc3Oc3cc(O)ccc32)c2ccc(NC(=S)NCCOCCOCCOCCn3cc(COc4ccc(S[C@@H]5O[C@H](CO)[C@H](O)[C@H](O)[C@H]5O)cc4)nn3)cc21", "note": "[compound 4]", "values": [{"measurement": "Kd", "setting": "LecA", "result": "8.5 ± 0.8", "unit": "µM"}]}, {"compound": "O=C1OC2(c3ccc(O)cc3Oc3cc(O)ccc32)c2ccc(NC(=S)NCCOCCOCCOCCn3cc(CNc4cccc(S[C@@H]5O[C@H](CO)[C@H](O)[C@H](O)[C@H]5O)c4)nn3)cc21", "note": "[compound 2]", "values": [{"measurement": "Kd", "setting": "LecA", "result": "5.3 ± 0.7", "unit": "µM"}, {"measurement": "Staining of biofilm aggregates", "setting": "[2]", "result": "showed staining"}]}, {"compound": "CC1=CC(C)=[N+]2C1=Cc1ccc(CCC(=O)NCCCN=[N+]=[N-])n1[B-]2(F)F", "note": "[compound 18, BDP FL azide, reference compound]", "values": [{"measurement": "Biofilm staining after accumulation", "setting": "[3]; 3 mL/h", "result": "did not show any enrichment"}, {"measurement": "Biofilm staining by CLSM after accumulation", "setting": "[3]", "result": "no signal was observed"}]}, {"compound": "CC1=CC(C)=[N+]2C1=Cc1ccc(CCC(=O)NCCCn3cc(CCN(Cc4ccc(NC(=O)CCc5ccc(O[C@@H]6O[C@H](CO)[C@H](O)[C@H](O)[C@H]6O)cc5)cc4)Cc4ccc(NC(=O)CCc5ccc(O[C@@H]6O[C@H](CO)[C@H](O)[C@H](O)[C@H]6O)cc5)cc4)nn3)n1[B-]2(F)F", "note": "[compound 19]", "values": [{"measurement": "Biofilm staining after accumulation", "setting": "[3]; 3 mL/h", "result": "strong staining was observed"}, {"measurement": "Biofilm staining by CLSM after accumulation", "setting": "[3]", "result": "clear and strong staining predominantly at the periphery of large biofilm aggregates"}, {"measurement": "Retention at biofilm after wash", "setting": "[3]; after 4 h accumulation at 500 nM, 30 min wash, 3 mL/h, no compound", "result": "the strong signal was still observed"}]}]}
